Assay results from patent US7166598B2, “Piperazine derivatives” (Astellas Pharma Inc., priority 1998, dated 2007).

| SMILES | melting point [°C] |
| --- | --- |
| COc1cc(C[C@@H]2CN(CCCc3cccnc3)CCN2C(=O)c2cc(C(F)(F)F)cc(C(F)(F)F)c2)ccc1F.Cl.Cl | 125 to 130 |
| COc1cc(C(=O)N2CCN(Cc3cnn(C)c3)C[C@H]2Cc2ccc(Cl)cc2)cc(C(F)(F)F)c1.Cl | 70 to 100 |
| Cl.Cn1cc(CN2CCN(C(=O)c3cc(C(F)(F)F)cc(C(F)(F)F)c3)[C@H](Cc3ccc(F)cc3)C2)cn1 | 143.3 to 146.4 |
| COc1cc(C(=O)N2CCN(Cc3cnn(C)c3)C[C@H]2Cc2ccc3ccccc3c2)cc(C(F)(F)F)c1.Cl | 226 to 228 |
| Cl.Cl.O=C(c1cc(C(F)(F)F)cc(C(F)(F)F)c1)N1CCN(Cc2cccnc2)C[C@H]1Cc1ccc(Cl)c(O)c1 | 187 to 192 |
| COC[C@@H]1CN(CCN2CCN(C(=O)c3cc(C(F)(F)F)cc(S(=O)(=O)N4CCOCC4)c3)[C@H](Cc3ccc(C)c(O)c3)C2)CCO1.Cl.Cl | 130 to 175 |
| COC[C@@H]1CN(CCN2CCN(C(=O)c3cc([N+](=O)[O-])cc(C(F)(F)F)c3)[C@H](Cc3ccc(C)c(O)c3)C2)CCO1.Cl.Cl | 181 to 185 |
| COC[C@@H]1CN(CCN2CCN(C(=O)c3cc(N(C)C)cc(C(F)(F)F)c3)[C@H](Cc3ccc(C)c(O)c3)C2)CCO1.Cl.Cl | 182 to 186 |
| CSc1cc(C(=O)N2CCN(CCN3C[C@@H](C)O[C@@H](C)C3)C[C@H]2Cc2ccc(Cl)cc2)cc(C(F)(F)F)c1.Cl.Cl | 138.4 to 142.5 |
| Cc1cc(C(=O)N2CCN(CCN3CCc4ncccc4C3)C[C@H]2Cc2ccc(Cl)cc2)cc(C(F)(F)F)c1.Cl.Cl.Cl | 102.5 to 110.4 |
| Cl.Cl.O=C(c1cc(C(F)(F)F)cc(C(F)(F)F)c1)N1CCN(CCCc2cccnc2)C[C@H]1Cc1ccc(F)cc1 | 110.2 to 117.5 |
| COc1cc(C(=O)N2CCN(CCCc3cccnc3)C[C@H]2Cc2ccc(F)cc2)cc(C(F)(F)F)c1.Cl.Cl | 111.5 to 118.3 |
| Cl.Cl.O=C(c1cc(C(F)(F)F)cc(C(F)(F)F)c1)N1CCN(CCN2C[C@H](O)[C@@H](O)C2)C[C@H]1Cc1ccc(C(F)(F)F)cc1 | 154 to 159 |
| C[C@@H]1CN(CCN2CCN(C(=O)c3cc(C(F)(F)F)cc(S(C)(=O)=O)c3)[C@H](Cc3ccc(C(F)(F)F)cc3)C2)C[C@H](C)O1.Cl.Cl | 188 to 195 |
| C[C@@H]1CN(CCN2CCN(C(=O)c3cc(C(F)(F)F)cc(C(F)(F)F)c3)[C@H](Cc3ccc(F)c(O)c3)C2)C[C@H](C)O1.Cl.Cl | 170 to 195 |
| COC[C@@H]1CN(CCN2CCN(C(=O)c3cc(C(F)(F)F)cc(C(F)(F)F)c3)[C@H](Cc3ccc(C(F)(F)F)cc3)C2)CCO1.Cl.Cl | 146 to 159 |
| COC[C@@H]1CN(CCN2CCN(C(=O)c3cc(C(F)(F)F)cc(C(F)(F)F)c3)[C@H](Cc3ccc(F)c(C)c3)C2)CCO1.Cl.Cl | 151 to 156 |
| CC1(C)COCCN1CC#CCN1CCN(C(=O)c2cc(C(F)(F)F)cc(C(F)(F)F)c2)[C@H](Cc2ccc(C(F)(F)F)cc2)C1.Cl.Cl | 110 to 130 |
| CC1(C)COCCN1CC#CCN1CCN(C(=O)c2cc(C(F)(F)F)cc(C(F)(F)F)c2)[C@H](Cc2ccc(F)cc2)C1.Cl.Cl | 76.5 to 130.6 |
| C[C@@H]1CN(CCN2CCN(C(=O)c3cc(C(F)(F)F)cc(C(F)(F)F)c3)[C@H](Cc3ccc4ccccc4c3)C2)C[C@H](C)O1.Cl.Cl | 168 to 195 |
| COc1cc(C(=O)N2CCN(CCN3CCC(F)(F)CC3)C[C@H]2Cc2ccc3ccccc3c2)cc(C(F)(F)F)c1.Cl.Cl | 243 to 260 |
| COc1cc(C(=O)N2CCN(CC#CCN3CCOCC3(C)C)C[C@H]2Cc2c[nH]c3ccccc23)cc(C(F)(F)F)c1.Cl.Cl | 190 to 200 |
| COc1cc(C(=O)N2CCN(Cc3cnn(C)c3)C[C@H]2Cc2c[nH]c3ccccc23)cc(C(F)(F)F)c1.Cl | 210 to 220 |
| COc1cc(C(=O)N2CCN(CCCc3cccnc3)C[C@H]2Cc2c[nH]c3ccccc23)cc(C(F)(F)F)c1.Cl.Cl | 135 to 145 |
